Data published in patent US20250074871A1, “PHENETHYLAMINES AND METHODS OF PREPARATION THEREOF” (priority 2022, published 2025).
Where two headings read alike, the source gives them in different places.

Tests used:
5-HT2A receptor = biological target: T1, 5-HT2A receptor (Homo sapiens, UniProt P28223); experiment: 5-HT2A Gq dissociation BRET functional assay; type: cell-based; conditions: for 5-HT2A BRET Eff %: normalized to % 5-HT stimulation
T1 construct: expressed in transfected cells; host or cells: HEK293T
T1 sequence (P28223 whole entry): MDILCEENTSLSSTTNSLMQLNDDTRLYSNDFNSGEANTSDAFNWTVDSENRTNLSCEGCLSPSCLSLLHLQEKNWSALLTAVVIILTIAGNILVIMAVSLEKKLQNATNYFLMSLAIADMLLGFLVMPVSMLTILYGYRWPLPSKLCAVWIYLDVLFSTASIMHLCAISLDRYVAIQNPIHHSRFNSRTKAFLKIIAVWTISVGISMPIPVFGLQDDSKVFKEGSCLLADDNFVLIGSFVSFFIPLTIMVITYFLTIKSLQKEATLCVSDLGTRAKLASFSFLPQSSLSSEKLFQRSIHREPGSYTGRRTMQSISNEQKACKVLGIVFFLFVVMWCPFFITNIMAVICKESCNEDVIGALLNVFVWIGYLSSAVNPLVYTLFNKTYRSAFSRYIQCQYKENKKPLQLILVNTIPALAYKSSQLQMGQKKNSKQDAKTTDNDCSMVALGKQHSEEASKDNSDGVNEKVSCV

5-HT2B receptor = biological target: T2, 5-HT2B receptor (Homo sapiens, UniProt P41595); experiment: 5-HT2B Gq dissociation BRET functional assay; type: cell-based; conditions: Table 2; for EC50: at least three replicate trials; for 5-HT2B BRET Eff %: normalized to % 5-HT stimulation
T2 construct: expressed in transfected cells; host or cells: HEK293T
T2 sequence (P41595 whole entry): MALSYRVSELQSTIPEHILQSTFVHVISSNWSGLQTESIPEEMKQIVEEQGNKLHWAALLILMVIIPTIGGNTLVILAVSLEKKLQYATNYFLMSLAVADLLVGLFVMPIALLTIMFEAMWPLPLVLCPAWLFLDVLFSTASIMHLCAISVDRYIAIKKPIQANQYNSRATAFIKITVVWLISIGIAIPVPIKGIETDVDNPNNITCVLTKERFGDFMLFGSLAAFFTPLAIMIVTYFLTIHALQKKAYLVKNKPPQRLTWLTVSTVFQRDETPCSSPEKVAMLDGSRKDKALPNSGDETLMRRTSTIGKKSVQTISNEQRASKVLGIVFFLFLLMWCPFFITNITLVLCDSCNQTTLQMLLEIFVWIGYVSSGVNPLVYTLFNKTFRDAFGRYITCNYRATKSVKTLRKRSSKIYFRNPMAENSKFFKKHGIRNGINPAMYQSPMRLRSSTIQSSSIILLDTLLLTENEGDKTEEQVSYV

[1] = biological target: T3, human ether-a-go-go-related gene (hERG) K+ channel (Homo sapiens, UniProt Q12809); experiment: Eurofins hERG Qube APC Assay; type: cell-based; conditions: for IC50 (hERG)/EC50 (5-HT2A) ratio: Table 4; for hERG risk potential: based on IC50 (hERG)/EC50 (5-HT2A) ratio
T3 construct: Eurofins
T3 sequence (Q12809 whole entry): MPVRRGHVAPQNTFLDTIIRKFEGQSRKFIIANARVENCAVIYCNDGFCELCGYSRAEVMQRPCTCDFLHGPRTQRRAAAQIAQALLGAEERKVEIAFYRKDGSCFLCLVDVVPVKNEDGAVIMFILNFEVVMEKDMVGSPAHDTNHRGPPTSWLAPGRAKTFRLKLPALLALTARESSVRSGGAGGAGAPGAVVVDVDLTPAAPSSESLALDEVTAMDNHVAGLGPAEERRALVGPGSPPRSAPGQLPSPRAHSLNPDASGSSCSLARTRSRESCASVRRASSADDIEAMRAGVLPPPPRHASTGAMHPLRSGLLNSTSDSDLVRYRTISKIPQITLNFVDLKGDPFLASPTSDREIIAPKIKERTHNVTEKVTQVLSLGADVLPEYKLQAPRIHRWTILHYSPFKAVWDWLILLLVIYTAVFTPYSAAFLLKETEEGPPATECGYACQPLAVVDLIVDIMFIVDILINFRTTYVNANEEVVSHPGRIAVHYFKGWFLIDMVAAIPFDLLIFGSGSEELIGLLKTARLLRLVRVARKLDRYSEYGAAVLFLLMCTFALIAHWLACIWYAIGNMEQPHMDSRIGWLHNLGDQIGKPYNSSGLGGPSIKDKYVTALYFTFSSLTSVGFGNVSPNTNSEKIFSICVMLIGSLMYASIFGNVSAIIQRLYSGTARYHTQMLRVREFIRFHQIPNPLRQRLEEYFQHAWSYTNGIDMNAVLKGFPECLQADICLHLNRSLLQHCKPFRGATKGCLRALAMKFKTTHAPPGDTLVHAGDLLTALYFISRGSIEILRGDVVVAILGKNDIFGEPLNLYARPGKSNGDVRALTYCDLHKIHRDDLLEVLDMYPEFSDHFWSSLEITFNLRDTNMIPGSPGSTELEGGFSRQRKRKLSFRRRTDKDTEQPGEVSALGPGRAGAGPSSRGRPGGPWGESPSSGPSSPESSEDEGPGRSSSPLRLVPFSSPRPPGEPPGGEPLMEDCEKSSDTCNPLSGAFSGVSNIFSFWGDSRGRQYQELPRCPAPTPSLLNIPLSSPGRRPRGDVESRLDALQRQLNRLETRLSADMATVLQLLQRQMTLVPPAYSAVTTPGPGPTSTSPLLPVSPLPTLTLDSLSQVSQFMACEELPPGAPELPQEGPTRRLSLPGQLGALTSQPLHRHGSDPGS
Text: As used herein and unless otherwise specified, the term “hERG risk” refers to the risk of a compound potentially inhibiting the human ether-a-go-go-related gene (hERG) K^+ channel, thereby leading to QT prolongation.
As a result of, many compounds disclosed in Table 1 and Table 2 were screened for the potential of “hERG risk” using pharmacological assays (e.g. Eurofins™ hERG Qube APC Assay). […].

5-HT2C receptor = biological target: T4, 5-HT2C receptor (Homo sapiens, UniProt P28335); experiment: cell-based; type: cell-based; conditions: Table 2; for EC50: at least three replicate trials, read-out: 5-HT2C BRET EC50; for 5-HT2C BRET Eff %: normalized to % 5-HT stimulation
T4 construct: expressed in transfected cells; host or cells: HEK293T
T4 sequence (P28335 33-458): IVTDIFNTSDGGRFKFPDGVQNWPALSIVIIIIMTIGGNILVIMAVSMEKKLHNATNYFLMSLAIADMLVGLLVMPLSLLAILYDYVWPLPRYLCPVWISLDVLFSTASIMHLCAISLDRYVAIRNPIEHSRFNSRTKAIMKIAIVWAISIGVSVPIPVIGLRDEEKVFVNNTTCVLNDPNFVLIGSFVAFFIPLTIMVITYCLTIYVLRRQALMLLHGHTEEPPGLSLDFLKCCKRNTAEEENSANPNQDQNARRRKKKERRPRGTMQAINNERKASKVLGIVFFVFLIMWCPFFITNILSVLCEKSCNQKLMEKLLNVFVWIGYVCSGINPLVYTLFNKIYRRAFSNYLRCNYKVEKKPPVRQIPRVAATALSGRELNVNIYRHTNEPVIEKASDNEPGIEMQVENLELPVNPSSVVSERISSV

mice = experiment: head-twitch response (HTR) in mice; type: in vivo, male C57BL/6J mice; conditions: Mus musculus; mice
Description: As used herein and unless otherwise specified, the term “HTR” refers to head-twitch response, which is a measurement of 5-HT2A activation in vivo.
As used herein and unless otherwise specified, the term “mice” refers to male C57BL/6J mice (6-8 weeks old).
HTR was assessed using a head-mounted neodymium magnet and a magnetometer detection coil, as described in Halberstadt et al., Psychopharmacology (Berl.), 2013, 227(4): 727-739. Table 8 below summarizes the ED50 in head twitch in mice of various compounds disclosed herein as compared to psilocybin. FIG. 3 illustrates the HTR relative to dose for compound 109: […]

[2] = 5-HT2A BRET EC50 (nM), Table 2, at least three replicate trials
[3] = EC50 BRET 2A, Table 4, unit inferred
[4] = Table 2, at least three replicate trials, read-out: 5-HT2A BRET EC50
[5] = Table 4, unit inferred, read-out: EC50 BRET 2A

Row | SMILES | EC50 (5-HT2A receptor; [2]) | EC50 (5-HT2A receptor; [3]) | 5-HT2A BRET Eff % (5-HT2A receptor; Table 2) | 5-HT2B BRET EC50 (nM) / Eff % (5-HT2B receptor) | IC50 [1] | IC50 (hERG)/EC50 (5-HT2A) ratio [1] | hERG risk potential [1] | EC50 (5-HT2C receptor) | 5-HT2C BRET Eff % (5-HT2C receptor) | ED50 (mice) | EC50 (5-HT2B receptor; 5-HT2B BRET EC50 (nM)) | 5-HT2B BRET Eff % (5-HT2B receptor) | EC50 (5-HT2A receptor; [4]) | EC50 (5-HT2A receptor; [5]) | EC50 (5-HT2B receptor; read-out: 5-HT2B BRET EC50)
1 | COc1cccc(CNCCc2ccc(C#N)cc2OC)c1 [Cpd #28] | 84 nM | 84 nM | 68% | Inactive | 1600 nM | 19 | High (compounds exhibiting a IC50 (hERG) /EC50 (5-HT2A) ratio of less than or equal to 150 are generally indicative of high hERG risk potential) | 873 nM | 91% |  |  |  |  |  | 
2 | CSc1ccc(CCNCc2ccccc2O)c(O)c1 [Cpd #122] | 1.6 nM | 1.4 nM | 92% | inactive | 790 nM | 564 |  | 3.6 nM | 108% |  |  |  |  |  | 
3 | COc1cc(C#N)ccc1CCNCc1cccc2c1OCO2 [Cpd #65] | 19.7 nM | 19.7 nM | 84% | Inactive | 2000 nM | 102 | High (compounds exhibiting a IC50 (hERG) /EC50 (5-HT2A) ratio of less than or equal to 150 are generally indicative of high hERG risk potential) | 496 nM | 97% |  |  |  |  |  | 
4 | COc1cc(C#N)c(F)cc1CCNCc1ccccc1O [Cpd #117] | 3.8 nM | 3.8 nM | 97% |  | 900 nM | 237 |  | 40.8 nM | 115% | 2.09 mg/kg | 4360 nM | 68% |  |  | 
5 | COc1cc(C#N)ccc1CCNCc1cccc2c1CCO2 [Cpd #63] | 135 nM | 135 nM | 62% | Inactive | 1600 nM | 12 | High (compounds exhibiting a IC50 (hERG) /EC50 (5-HT2A) ratio of less than or equal to 150 are generally indicative of high hERG risk potential) | 2090 nM | 78% |  |  |  |  |  | 
6 | Oc1ccccc1CNCC(O)c1ccc(C(F)(F)F)cc1OCc1ccccc1 (stereo not drawn) [Reference Compound 1a, reference compound] |  |  | 91% |  | 2300 nM | 5 | High (compounds exhibiting a IC50 (hERG) /EC50 (5-HT2A) ratio of less than or equal to 150 are generally indicative of high hERG risk potential) | 326 nM | 105% |  |  | 56% | 451 nM | 451 nM | 342 nM
7 | COc1cc(C#N)ccc1CCNCc1cccc2occc12 [Cpd #64] |  |  | 82% |  | 900 nM | 30 | High (compounds exhibiting a IC50 (hERG) /EC50 (5-HT2A) ratio of less than or equal to 150 are generally indicative of high hERG risk potential) | 357 nM | 104% |  |  | 93% | 29.8 nM | 29.8 nM | 8920 nM
8 | Oc1cc(Cl)ccc1CCNCc1ccccc1O [Cpd #131] | 2.4 nM | 2.1 nM | 93% | Inactive | 1310 nM | 624 |  | 1.8 nM | 103% | 1.24 mg/kg |  |  |  |  | 
9 | COc1cc(C#N)ccc1CCNCc1ccccc1SC [Cpd #108] | 2.4 nM | 2.4 nM | 99% |  | 1780 nM | 742 |  | 16 nM | 103% | 7.23 mg/kg | 2380 nM | 128% |  |  | 
10 | COc1cc(C#N)ccc1CCNCc1ccccc1OC [Cpd #27] | 4.2 nM | 4.2 nM | 96% |  | 2000 nM | 476 |  | 15.9 nM | 109% | 3 mg/kg | 423 nM | 66% |  |  | 
11 | CSc1ccccc1CNCCc1ccc(C(F)F)cc1O [Cpd #123] | 3.2 nM |  | 96% |  |  |  |  | 30 nM | 120% |  | 6720 nM | 95% |  |  | 
12 | COc1cc(C#N)ccc1CCNCc1c(Cl)cccc1Cl [Cpd #58] | 496 nM |  | 79% | Inactive |  |  |  | 2170 nM | 85% |  |  |  |  |  | 
13 | COc1cc(C#N)ccc1CCNCc1ccccc1F [Cpd #6] | 381 nM |  | 81% | Inactive |  |  |  | 2120 nM | 130% |  |  |  |  |  | 
14 | COc1cc(Cc2ccccc2)ccc1CCNCc1ccccc1O [Cpd #126] |  |  | 99% |  |  |  |  | 3.8 nM | 111% |  |  | −23% | 1.2 nM |  | 0.02 nM
15 | CSc1ccccc1CCNCCc1ccc(C#N)cc1O [Cpd #134] |  |  | 67% |  |  |  |  | 160 nM | 87% |  |  | 85% | 384 nM |  | 620 nM
16 | COc1ccc(CCNCc2ccccc2SC)c(O)c1 [Cpd #119] | 4.6 nM |  | 100% |  |  |  |  | 114 nM | 119% |  | 2540 nM | 108% |  |  | 
17 | COc1cc(C#N)ccc1CCNCc1cccc(F)c1 [Cpd #7] | 133 nM |  | 84% | Inactive |  |  |  | 800 nM | 126% |  |  |  |  |  | 
18 | CN(C)CCc1c[nH]c2cccc(OP(=O)(O)O)c12 [Psilocybin, psilocybin, reference compound] |  |  |  |  |  |  |  |  |  | 0.38 mg/kg |  |  |  |  | 
19 | COc1cc(-c2cnoc2)ccc1CCNCc1ccccc1Cl [Cpd #101] |  |  | 65% | Inactive |  |  |  | 9520 nM | 116% |  |  |  | 270 nM |  | 
20 | COc1cc(C#N)c(F)cc1CCNCc1ccccc1SC [Cpd #128] | 7.8 nM |  | 99% |  |  |  |  | 114 nM | 118% |  | 723 nM | 109% |  |  | 
21 | COc1cc(Oc2ccccc2)ccc1CCN [Cpd #140] | 2890 nM |  | 87% | Inactive |  |  |  | 796 nM | 107% |  |  |  |  |  | 
22 | COc1cc2c(cc1CCNCc1ccccc1O)CCO2 [Cpd #141] | 2.3 nM |  | 96% |  |  |  |  | 1.6 nM | 107% |  | 78.5 nM | 59% |  |  | 
23 | N#Cc1ccc(CCNCc2ccccc2O)c(OC(F)(F)F)c1 [Cpd #115] | 212 nM |  | 94% | Inactive |  |  |  | 380 nM | 104% |  |  |  |  |  | 
24 | COc1ccc(CCNCc2ccccc2O)c(OC)c1 [Cpd #96, reference compound] | 2.3 nM |  | 95% | Inactive |  |  |  | 7.2 nM | 109% |  |  |  |  |  | 
25 | COc1ccccc1CNCCc1ccc(F)cc1O [Cpd #130] | 18 nM |  | 84% | Inactive |  |  |  | 8.7 nM | 101% |  |  |  |  |  | 
26 | COc1cc(C#N)ccc1CCNCc1ccccc1Cl [Cpd #12] | 102 nM | 102 nM | 90% | Inactive | 1720 nM | 17 | High (compounds exhibiting a IC50 (hERG) /EC50 (5-HT2A) ratio of less than or equal to 150 are generally indicative of high hERG risk potential) | 1200 nM | 130% |  |  |  |  |  | 
